From patent publication US20210346356A1, “INHIBITING UBIQUITIN SPECIFIC PEPTIDASE 9X” (FORMA THERAPEUTICS, INC., priority 2018, published 2021) come the findings set out here.

Test [1] deals with SEB-exhausted human PBMCs. Nature of the test: cells. The format is cell-based.
The subject of a further test is SEB-restimulated PBMCs. As to the kind of experiment: IFNγ production in SEB-restimulated PBMCs (Example 1). The test is classed as cell-based, human. The following applies: FIG. 5 (Inhibitor 3 at 10 μM). The text has this: The effect of USP9X inhibition on PBMCs that have been re-stimulated with SEB was also investigated. […] This is consistent with the notion that the SEB-restimulated T cells were in a state of exhaustion or rendered tolerant to SEB.

Test [2] deals with CD3/CD28 Activated T Cells. Nature of the test: anti-CD3/CD28 T cell activation assay (Example 2). As to conditions: FIG. 6. The test is classed as cell-based. How it is done: (§1) Given the reported role of ITCH and Cbl-b in T cell tolerance and as a negative regulator of T-cell receptor (TCR)/[…] 28 (CD28) signaling, the effects of USP9X inhibition were evaluated in a CD3/CD28 activation assay and in a mixed lymphocyte reaction (MLR) assay.

Test [3] has as its system mixed lymphocyte reaction. Nature of the test: mixed lymphocyte reaction (MLR) assay (Example 2). The format is cell-based. As to conditions: FIG. 7. How it is done:
as §1

The test system of another test is A375 melanoma cells. As to the kind of experiment: Allogeneic PBMC-mediated cytotoxicity of A375 melanoma cells, caspase 3/7 (Example 4). The test is classed as cell-based, human. The following applies: with SEB-stimulated PBMCs, FIG. 9A/9B. The method, then: A375 cells incubated alone, in the absence of SEB-stimulated PMBCs, with either compound had no significant effect on cellular apoptosis.

Test [4] deals with Human total T cells (CD3+). As to the kind of experiment: Human T cell activation with CD3/CD28 activator, IFNγ ELISA (Example 6). The format is cell-based. The following applies: 4 days, two donors, FIGS. 11-12. The method, then: Human total T cells (CD3+) were isolated using EasySep™ immunomagnetic beads (Stemcell Technologies) from healthy human PBMCs (Hemacare). Cells were stained with Cell Trace Violet proliferation dye (Invitrogen), and treated with agent or DMSO. Cells were also stimulated with a CD3/CD28 activator (Stemcell Technologies). After 4 days of incubation, cells and supernatant were collected; cells were washed with staining buffer (PBS with 2% FBS) twice and centrifuged (350 g for 5 min). Cells were stained with LIVE/DEAD stain (Invitrogen), FITC-CD4 (BD Pharmingen) and CD8 (BD Pharmingen) in 100 μL volume for 30 mins at 4° C. Cells were washed twice as described above, resuspended in 100 μL staining buffer and analyzed using a BD Canto II (BD Biosciences). Data was analyzed using FlowJo V10 (FlowJo LLC). Secreted IFNγ was measured by ELISA (Dakewe Biotech Co., Ltd). All data were analyzed by Graphpad Prism 6.0 (GraphPad Software).
Background: ELISA stands for enzyme-linked immunosorbent assay.

For a further test, the system named is female BALB/c mice. As to the kind of experiment: SEB-induced peripheral tolerance in mice, spleen and splenocyte readouts (Example 7). The format is in vivo. The method, then:
Peripheral tolerance/inactivation was induced in female BALB/c mice by a single intraperitoneal injection of 30 μg SEB. Mice were treated with a positive control (anti-CTLA4) or various doses of USP9X Inhibitor 3. Spleens and splenocytes were harvested at 24 hr after the last dose. […] No changes in IL-2 and IFNγ levels were detected in the supernatants from SEB-restimulated splenocytes.

Where [5] appears, read: highest dose group, 24 hr after last dose.

By EC50 is commonly meant the midpoint of the concentration-response curve. As to `CNC[C@H](C(=O)N1CC2=C(C1)CN(S(=O)(=O)c1ccc3c(c1)OCCO3)C2)c1cccc(Cl)c1` [USP9X Inhibitor 3, (2R)-2-(3-chlorophenyl)-1-[5-(2,3-dihydro-1,4-Benzodioxine-6-sulfonyl)-1H,2H,3H,4H,5H,6H-pyrrolo[3,4-c]pyrrol-2-yl]-3-(methylamino)propan-1-one], the “IFNγ production compared to DMSO or negative control compound 5” value in test [1] is “significantly increase IFNγ production”. The half-maximal effective concentration (EC50) in test [1] (Homo sapiens, PBMC, 48 h, read-out: EC50 value for IFNγ secretion) was in the range of 100 to 1000 nM; in test [3] (Lymphocyte, read-out: EC50 for IFNγ secretion in the MLR assay), 100 to 1000 nM. Moreover, the “IFNγ production following SEB-restimulation” value in the test with SEB-restimulated PBMCs is reported as “restored IFNγ production to varying degrees depending on the donor”. Moreover, the IFNγ production result is “the most profound effect” in test [2] and “increased” in test [4]. In addition, the “IFNγ secretion in the MLR assay” value in test [3] is listed as “promoted IFNγ secretion”. Moreover, the “A375 apoptosis (caspase 3/7 activity)” value with A375 melanoma cells was “enhanced A375 apoptosis in a concentration-dependent manner”. Also, the “Spleen protein level of Cbl-b, reduction” value in the test on female BALB/c mice (setting [5]) was 81%. Moreover, the “Spleen protein level of ITCH, reduction” value in the test on female BALB/c mice (setting [5]) stood at 64%. Moreover, the “Spleen protein levels of Cbl-b and ITCH” value in the test on female BALB/c mice (lower doses) is “no notable changes”. The “IL-2 and IFNγ levels in supernatants from SEB-restimulated splenocytes” value with female BALB/c mice (splenocytes harvested 24 hr after last dose) is “No changes”.
Turning to `O=S(=O)(c1ccc(-c2ncco2)cc1)N1Cc2cnc(C(O)c3cccc(N4CCNCC4)c3)cc2C1` (stereo not shown) [USP9X Inhibitor 4, [2-[4-(1,3-oxazol-2-yl)benzenesulfonyl]-1H,2H,3H-pyrrolo[3,4-c]pyridin-6-yl][3-(piperazin-1-yl)phenyl] methanol], in test [4], the IFNγ production entry is “increased”.
